Results from PubChem BioAssay AID1963429 (Molecular Pharmacology Branch, DTP, NCI, 2024).

System: 126254-015-R-J1-PDC complex spheroid growth, % test/control
Test: Anticancer human tumor 126254-015-R-J1-PDC patient-derived soft tissue sarcoma cell line growth inhibition [Asc]
Details: for IC50: curve of first compound; for viability, T/C: stronger effect = lower value
In short: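 Complex solid-tumor spheroids incorporating human endothelial and mesenchymal stem cells received single agents or combinations over half-log dilution ranges anchored to clinical Cmax.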

[1] = second compound 0.03 µM, first compound 0.00316 µM
[2] = second compound 0.03 µM, first compound 0.01 µM
[3] = second compound 0.03 µM, first compound 0.0316 µM
[4] = second compound 0.03 µM, first compound 0.1 µM
[5] = second compound 0.03 µM, first compound 0.316 µM
[6] = second compound 0.03 µM, first compound 1 µM
[7] = second compound 0.0949 µM, first compound 0.00316 µM
[8] = second compound 0.0949 µM, first compound 0.01 µM
[9] = second compound 0.0949 µM, first compound 0.0316 µM
[10] = second compound 0.0949 µM, first compound 0.1 µM
[11] = second compound 0.0949 µM, first compound 0.316 µM
[12] = second compound 0.0949 µM, first compound 1 µM
[13] = second compound 0.3 µM, first compound 0.00316 µM
[14] = second compound 0.3 µM, first compound 0.01 µM
[15] = second compound 0.3 µM, first compound 0.0316 µM
[16] = second compound 0.3 µM, first compound 0.1 µM
[17] = second compound 0.3 µM, first compound 0.316 µM
[18] = second compound 0.3 µM, first compound 1 µM
[19] = second compound 0.949 µM, first compound 0.00316 µM
[20] = second compound 0.949 µM, first compound 0.01 µM
[21] = second compound 0.949 µM, first compound 0.0316 µM
[22] = second compound 0.949 µM, first compound 0.1 µM
[23] = second compound 0.949 µM, first compound 0.316 µM
[24] = second compound 0.949 µM, first compound 1 µM
[25] = second compound 3 µM, first compound 0.00316 µM
[26] = second compound 3 µM, first compound 0.01 µM
[27] = second compound 3 µM, first compound 0.0316 µM
[28] = second compound 3 µM, first compound 0.1 µM
[29] = second compound 3 µM, first compound 0.316 µM
[30] = second compound 3 µM, first compound 1 µM
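Note: spheroids exposed to compound for seven days.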
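Throughout, for viability, T/C: 100% = DMSO vehicle control wells.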

Row | Compound | IC50 (second compound 0.03 µM) | IC50 (second compound 0.0949 µM) | IC50 (second compound 0.3 µM) | IC50 (second compound 0.949 µM) | IC50 (second compound 3 µM) | viability, T/C [1] | viability, T/C [2] | viability, T/C [3] | viability, T/C [4] | viability, T/C [7] | viability, T/C [8] | viability, T/C [9] | viability, T/C [10] | viability, T/C [13] | viability, T/C [14] | viability, T/C [15] | viability, T/C [16] | viability, T/C [19] | viability, T/C [20] | viability, T/C [21] | also measured
1 | CNC(C)C(=O)NC1CN(S(=O)(=O)c2cccc(S(=O)(=O)N3CCC4CCC(C(=O)NC(c5ccccc5)c5ccccc5)N4C(=O)C(NC(=O)C(C)NC)C3)c2)CCC2CCC(C(=O)NC(c3ccccc3)c3ccccc3)N2C1=O (stereo not given) + CCN1C(C(=O)NC23CCC(C(=O)O)(CC2)CC3)C(c2cccc(Cl)c2F)C2(C(=O)Nc3cc(Cl)ccc32)C12CCCCC2 | > 1000 nM | > 1000 nM | > 1000 nM | > 1000 nM | > 1000 nM | 108% | 94.3% | 76.7% | 61.4% | 104% | 106% | 78.5% | 67.2% | 96% | 92.9% | 96.4% | 65.3% | 103% | 90.4% | 79.6% | viability, T/C [5]: 50.6%; viability, T/C [6]: 56.6%; viability, T/C [11]: 52.6%; viability, T/C [12]: 57.6%; viability, T/C [17]: 62%; viability, T/C [18]: 55.8%; viability, T/C [22]: 66%; viability, T/C [23]: 58%; viability, T/C [24]: 55.7%; viability, T/C [25]: 85.7%; viability, T/C [26]: 80.8%; viability, T/C [27]: 84.6%; viability, T/C [28]: 65.3%; viability, T/C [29]: 53.9%; viability, T/C [30]: 59.2%
2 | COc1c(OCCCN2CCOCC2)ccc2c3n(c(=NC(=O)c4cnc(N)nc4)nc12)CCN3 + CCN1C(C(=O)NC23CCC(C(=O)O)(CC2)CC3)C(c2cccc(Cl)c2F)C2(C(=O)Nc3cc(Cl)ccc32)C12CCCCC2 | 44.2 nM | 38.6 nM | 37.4 nM | 49.1 nM | 51 nM | 93.9% | 91.4% | 56.9% | 28.8% | 87.3% | 73.5% | 57.5% | 25.8% | 89.3% | 72.3% | 57.2% | 26.9% | 93.6% | 86.5% | 61.8% | viability, T/C [5]: 17.4%; viability, T/C [6]: 11.1%; viability, T/C [11]: 16.1%; viability, T/C [12]: 9.86%; viability, T/C [17]: 16.3%; viability, T/C [18]: 10.5%; viability, T/C [22]: 30.3%; viability, T/C [23]: 15.6%; viability, T/C [24]: 10.4%; viability, T/C [25]: 87.2%; viability, T/C [26]: 85.3%; viability, T/C [27]: 62.6%; viability, T/C [28]: 31.2%; viability, T/C [29]: 16.4%; viability, T/C [30]: 10.9%
3 | NC1CCC(NC2CC2c2ccccc2)CC1 (stereo not given) + CCN1C(C(=O)NC23CCC(C(=O)O)(CC2)CC3)C(c2cccc(Cl)c2F)C2(C(=O)Nc3cc(Cl)ccc32)C12CCCCC2 | > 100 nM | > 100 nM | > 100 nM | > 100 nM | > 100 nM | 99.1% | 93.1% | 79.7% | 83.1% | 93% | 83.5% | 75.5% | 85.9% | 82.7% | 79.7% | 78.3% | 88.4% | 97% | 82.5% | 81.5% | viability, T/C (second compound 0.03 µM, first compound 0.000316 µM): 94.7%; viability, T/C (second compound 0.03 µM, first compound 0.001 µM): 97.4%; viability, T/C (second compound 0.0949 µM, first compound 0.000316 µM): 85.6%; viability, T/C (second compound 0.0949 µM, first compound 0.001 µM): 81%; viability, T/C (second compound 0.3 µM, first compound 0.000316 µM): 87.3%; viability, T/C (second compound 0.3 µM, first compound 0.001 µM): 89.4%; viability, T/C (second compound 0.949 µM, first compound 0.000316 µM): 90.1%; viability, T/C (second compound 0.949 µM, first compound 0.001 µM): 92.3%; viability, T/C [22]: 83.7%; viability, T/C (second compound 3 µM, first compound 0.000316 µM): 90%; viability, T/C (second compound 3 µM, first compound 0.001 µM): 96.9%; viability, T/C [25]: 78.1%; viability, T/C [26]: 74.5%; viability, T/C [27]: 84.1%; viability, T/C [28]: 85.2%
